15 compounds from patent publication US5541187A, “6-heterocycyclyl pyrazolo[3,4-d]pyrimidin-4-ones and compositions and method of use thereof” (Sterling Winthrop Inc., priority 1993, dated 1996) can be followed below.

Values joined by “and” are separate entries in the source; they are usually repeats but may differ in a detail not shown here. Equal entries are not always repeated.

Assay [1] deals with Spontaneously hypertensive rats (SHR). As to the kind of experiment: Antihypertensive activity in conscious spontaneously hypertensive rats (SHR), iv. Type of assay: in vivo. Conditions: Rattus norvegicus, 5 min; for change in vivo at 10 mg/kg / change in vivo at 3 mg/kg / change in vivo at 1 mg/kg: 5 minutes after dose, cumulative dosing, read-out: % change in mean arterial pressure; for ED25: read-out: ED25 (mean arterial pressure). The protocol:
After a 2 day recovery from surgery, three baseline blood pressure measurements were made at 5 min intervals in conscious SHR. Compounds to be tested or vehicle were then administered intravenously in a dose-dependent manner (0.3-10 mg base/kg) while arterial pressure was recorded continuously on a polygraph. The mean arterial pressure response was measured 5 minutes after the administration of each dose of the test compound and the next dose given in a cumulative dose fashion. The response to each dose of the test compound was calculated as the difference from the mean of the three baseline measurements.

The next assay has as its system cGMP-PDE I. The experiment in a line: cGMP-PDE I inhibitory activity (cyclic nucleotide hydrolysis, isolated PDE isozyme). Type of assay: biochemical, various animal species and man. Conditions: for IC50: values marked * are from two separate experimental runs. On the procedure:
Multiple isozymic forms of cyclic nucleotide phosphodiesterase (PDE) have been identified in mammalian cells. […] Elevation of intracellular cGMP in vascular smooth muscle triggers a cascade of events that leads to a reduction in muscle tone while elevations in renal tubule cell cGMP stimulates natriuresis and diuresis. Vascular smooth muscle and renal cells contain a phosphodiesterase isozyme that has a low Km (1 μM) for the hydrolysis of cGMP. This isozyme has been referred to as the cGMP-PDE or cGMP-PDE I since it elutes from an anion-exchange sepharose resin in the first peak of PDE activity at a sodium acetate concentration between 150-200 mM. Thus inhibition of the cGMP-PDE isozyme is a viable subcellular mechanism by which increases in cGMP can produce a reduction in total peripheral resistance and a stimulation of natriuresis and diuresis. The development of cGMP-PDE inhibitors represents an approach for the discovery of agents useful for treating heart failure and hypertension. For example, compounds having high inhibitory potency for the cGMP-PDE are expected to lower blood pressure and induce natriuresis and diuresis.
The cGMP-PDE and other PDE isozymes were isolated from cardiovascular tissues (heart and aorta) of various animal species and man by anion-exchange and affinity chromatography as described by Silver et al., Sec. Messeng. Phos. 13:13-25, 1991; PDE activity, in the presence and absence of test compounds was determined essentially as described by Thompson et al., Adv. Cyclic Nucleotide Res. 10:69-92. To determine the potency and selectivity of compounds as PDE inhibitors, compounds are screened for their effect on cyclic nucleotide hydrolysis at 10 μM. If ≥50% inhibition of PDE activity is observed, an IC50 value (concentration of compound causing 50% reduction in PDE activity) and corresponding 95% confidence intervals are generated. The IC50 values are calculated from concentration-response curves as described by Tallarida and Murray, Manual of Pharmacologic Calculations with Computer Programs, Procedure 8, Graded Dose-response, pp. 14-19, Springer-Verlag, N.Y., 1981.

In assay [2] the test system is Spontaneously hypertensive rats. As to the kind of experiment: Procedure 2: in vivo reversal of nitroglycerin tolerance, mean arterial pressure. Conditions: for change in MAP in response to nitroglycerin injection: nitroglycerin 10 μg/kg i.v. Set-up: species or system rat (spontaneously hypertensive rats). On the procedure:
Spontaneously hypertensive rats (16-19 weeks of age) were made nitroglycerin tolerant by injecting […] nitroglycerin s.c., 3-times/day for 3 days. While conscious and freely moving, the decrease in mean arterial pressure (MAP) in response to a challenge dose of nitroglycerin (10 μg/kg, i.v. bolus) was utilized to confirm tolerance.

Assay [3] concerns aortic rings (aortic smooth muscle strips). As to the kind of experiment: Procedure 1: in vitro reversal of nitroglycerin tolerance, relaxation of aortic rings. Type of assay: cell-based, Male Sprague-Dawley rats. The settings on record: Rattus norvegicus, n=8, mean ±S.E.M. On the procedure: Male Sprague-Dawley rats (250-350 g body weight) were deeply anesthetized with pentobarbital (50 mg/kg) and then euthanized by exsanguination. The thoracic and abdominal cavities were immediately opened and the aorta was removed. In order to remove the influence of endogenous endothelial relaxing factor (EDRF), the entire length of the aorta was functionally denuded of the endothelial layer by gently scraping the luminal surface with a solid polyethylene catheter. The effectiveness of this procedure was tested in each preparation at the end of the experiment by measuring the vasorelaxant response to 1 μM carbachol, a stimulator of EDRF release. […] Maximal change in contractile tension over a series of nine consecutive 10 minute intervals was recorded and expressed as percent relaxation relative to post pre-treatment, phenylephrine-induced tension. Mean EC50 values were calculated from percent relaxation of individual tissues using a statistical program according to Tallarida and Murray, (Manual of Pharmacologic Calculations with Computer Programs, Springer-Verlag, N.Y. 1987) and are expressed as mean ±S.E.M.

Turning to `CCc1[nH]n(C2CCCC2)c2nc(-c3ccncc3OC)nc(=O)c1-2` [Example 128c, 1-Cyclopentyl-3-ethyl-6-(3-methoxy-4-pyridyl)pyrazolo[3,4-d]pyrimidin-4-one], in assay [1], the change in vivo at 10 mg/kg is -48% and the ED25 stood at 0.23 mg/kg. For the same compound, the “Percent Inhibition cGMP-PDE I” value with cGMP-PDE I (0.01 μM) was determined as 54%. Also, the “Percent Inhibition cGMP-PDE I” value with cGMP-PDE I (0.1 μM) is given as 71%. Moreover, the IC50 with cGMP-PDE I came to 0.036 µM.

As to `Cc1[nH]n(C2CCCC2)c2nc(-c3ccc4ncccc4c3)nc(=O)c1-2` [Example 14c, 1-Cyclopentyl-3-methyl-6-(6-quinolinyl)-pyrazolo [3,4-d]-pyrimidin-4-one], in assay [1], the ED25 was 7.8 mg/kg. For the same compound, in the assay with cGMP-PDE I, the IC50 is 0.78 µM.

`CCc1nn(C2CCCC2)c2nc(-c3ccnc(OCCN4CCOCC4)c3)[nH]c(=O)c12` [Example 124c, hydrate]: in assay [1], the change in vivo at 3 mg/kg is -14%, the change in vivo at 10 mg/kg is -24% and the ED25 came out at 10.1 mg/kg. Moreover, the “Percent Inhibition cGMP-PDE I” value with cGMP-PDE I (0.01 μM) amounted to 19%. In addition, in the assay with cGMP-PDE I (0.1 μM), the “Percent Inhibition cGMP-PDE I” value is 50%. The “Percent Inhibition cGMP-PDE I” value with cGMP-PDE I (1 μM) was determined as 86%. For the same compound, the midpoint of inhibition in the assay with cGMP-PDE I, the IC50, lay at 0.15 µM.

Consider `CCOc1cnccc1-c1nc2n(C3CCCC3)[nH]c(C(F)(F)F)c-2c(=O)n1` [Example 127c, 1-Cyclopentyl-3-trifluoromethyl-6-(3-ethoxy-4-pyridyl)pyrazolo[3,4-d]pyrimidin-4-one], for which the change in vivo at 10 mg/kg in assay [1] is -14%. Also, the “Percent Inhibition cGMP-PDE I” value worked out at 79% in the assay on cGMP-PDE I (0.01 μM) and 93% in the assay with cGMP-PDE I (0.1 μM). For the same compound, the IC50 in the assay with cGMP-PDE I is 0.0018 µM and 0.0025 µM.

With `Cc1nn(C2CCCC2)c2nc(-c3cccnc3)[nH]c(=O)c12` [Example 98], the ED25 in assay [1] came out at 4.1 mg/kg. The same compound registered an IC50 in the assay on cGMP-PDE I of 0.56 µM.

In the case of `Cc1nn(C2CCCC2)c2nc(-c3ccncc3)[nH]c(=O)c12` [Example 83], in assay [1], the ED25 was 1 mg/kg. The compound further returned an IC50 in the assay on cGMP-PDE I of 0.37 µM. For the same compound, the “change in MAP at threshold dose of the compound” value in assay [2] (1 mg/kg, i.v., threshold dose) is given as “approximately 10 mmHg”. In addition, in assay [2] (nitroglycerin tolerant rats (n=12), compound 1 mg/kg i.v., then nitroglycerin 10 μg/kg), the “change in MAP in response to nitroglycerin injection after pretreatment with the compound” value is given as -35 mmHg.

For `Cc1[nH]n(C2CCCC2)c2nc(-c3ccnc4ccccc34)nc(=O)c1-2` [Example 13b, 1-Cyclopentyl-3-methyl-6-(4-quinolinyl)-pyrazolo [3,4-d]-pyrimidin-4-one], in assay [1], the change in vivo at 1 mg/kg was -17% and the change in vivo at 3 mg/kg is -14%. For the same compound, in the assay on cGMP-PDE I, the IC50 worked out at 0.097 µM.

With `CCOc1cnccc1-c1nc2n(C3CCCC3)[nH]c(CC)c-2c(=O)n1` [Example 119d, 1-Cyclopentyl-3-ethyl-6-(3-ethoxy-4-pyridyl)pyrazolo[3,4-d]pyrimidin-4-one], in assay [1], the change in vivo at 3 mg/kg was -24%, the change in vivo at 10 mg/kg is -36% and the ED25 is 4.8 mg/kg. The “Percent Inhibition cGMP-PDE I” value in the assay on cGMP-PDE I (0.1 μM) stood at 90%. In addition, the IC50 with cGMP-PDE I is 0.0016 µM.

As to `CCc1[nH]n(C2CCCC2)c2nc(-c3ccncc3OC(C)CC)nc(=O)c1-2` (stereo not shown) [Example 132b, 1-Cyclopentyl-3-ethyl-6-(3-sec-butoxy-4-pyridyl)pyrazolo[3,4-d]pyrimidin-4-one], in assay [1], the change in vivo at 1 mg/kg was -9%, the change in vivo at 3 mg/kg is -8% and the change in vivo at 10 mg/kg was -12%. Besides, in the assay with cGMP-PDE I (0.01 μM), the “Percent Inhibition cGMP-PDE I” value is listed as 90%.

`CCc1nn(C2CCCC2)c2nc(-c3ccncc3)[nH]c(=O)c12` [Example 75]: the ED25 in assay [1] is 1.7 mg/kg. Also, the IC50 in the assay on cGMP-PDE I is 0.45 µM and 0.37 µM.

Consider `Cc1nn(C(C)(C)C)c2nc(-c3ccncc3)[nH]c(=O)c12` [Example 93], for which, in assay [1], the ED25 was found to be 6.5 mg/kg. The compound further gave an IC50 in the assay with cGMP-PDE I of 0.38 µM.

`O=[N+]([O-])OCC(CO[N+](=O)[O-])O[N+](=O)[O-]` [nitroglycerin, reference compound]: the concentration for a half-maximal effect (EC50) in assay [3] (1 h, tolerant strips, pre-exposed to 550 μM nitroglycerin for 60 minutes, p <0.01) came out at 1.55 ± 0.637 µM; in assay [3] (vehicle treated, control strips), 0.077 ± 0.016 µM. Also, the “change in MAP in response to nitroglycerin injection” value in assay [2] (non-tolerant rats (n=6)) was -19 mmHg; in assay [2] (tolerant rats (n=11)) it was -11 mmHg.

Take `CC(C)(C)n1[nH]c(Cc2ccncc2)c2c(=O)nc(-c3ccncc3)nc1-2` [Example 123d, 1-tert-butyl-3-(4-pyridylmethyl)-6-(4-pyridyl)-pyrazolo[3,4-d]pyrimidin-4-one]: the change in vivo at 10 mg/kg in assay [1] is -7%. Also, the results for the “Percent Inhibition cGMP-PDE I” value in the assay with cGMP-PDE I (0.1 μM) and in the assay with cGMP-PDE I (1 μM) were 55% and 90%, respectively. Half-maximal inhibition in the assay on cGMP-PDE I (IC50) required 0.12 µM.

Turning to `COc1ccc(Cc2[nH]n(C(C)(C)C)c3nc(-c4ccncc4)nc(=O)c2-3)cc1OC` [Example 4e, 1-tert-Butyl-3-(3,4-dimethoxybenzyl)-6-(4-pyridyl) pyrazolo[3,4-d]pyrimidin-4-one], in assay [1], the change in vivo at 10 mg/kg was -2%. Besides, the “Percent Inhibition cGMP-PDE I” value with cGMP-PDE I (0.01 μM) is 69%. The compound also yielded an IC50 with cGMP-PDE I of 0.006 µM.

`CC(C)(C)n1nc(Cc2ccccc2)c2c(=O)[nH]c(-c3ccncc3)nc21` [Example 90]: the change in vivo at 1 mg/kg in assay [1] is -6%.

Broadly, the IC50 is the midpoint of a concentration-inhibition curve. High values mean weaker potency in that assay, low ones greater potency in that assay. For orientation: EC50 means the midpoint of the concentration-response curve.
